Laboratory results as given in ChEMBL document CHEMBL1909046, “DrugMatrix in vitro pharmacology data”.

Assays:
[1] = molecular target: T1, Muscarinic acetylcholine receptor M2 (Homo sapiens, UniProt P08172); type: cell membranes, CHO-K1, Membrane; settings: cho-k1; also: in other assays of this panel Not Active means under 50% inhibition at 10 µM
T1 sequence (P08172 whole entry): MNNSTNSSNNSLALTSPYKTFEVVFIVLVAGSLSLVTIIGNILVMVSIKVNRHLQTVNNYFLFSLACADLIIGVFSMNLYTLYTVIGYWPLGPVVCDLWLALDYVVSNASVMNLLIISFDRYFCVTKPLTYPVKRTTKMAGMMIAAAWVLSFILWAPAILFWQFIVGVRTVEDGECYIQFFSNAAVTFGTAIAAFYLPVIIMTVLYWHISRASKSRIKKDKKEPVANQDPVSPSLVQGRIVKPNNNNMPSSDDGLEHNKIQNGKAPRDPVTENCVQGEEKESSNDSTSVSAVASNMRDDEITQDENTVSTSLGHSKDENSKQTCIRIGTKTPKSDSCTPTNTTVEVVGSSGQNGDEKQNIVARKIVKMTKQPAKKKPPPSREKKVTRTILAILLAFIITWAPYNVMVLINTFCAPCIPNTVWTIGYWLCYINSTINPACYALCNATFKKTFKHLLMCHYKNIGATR

[2] = molecular target: T2, 3-hydroxy-3-methylglutaryl-coenzyme A reductase (Homo sapiens, UniProt P04035); parameters: species or system Escherichia coli;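 also: enzyme inhibition assay of HMG-CoA reductase using radiolabeled [14C]HMG-CoA as substrate; in other assays of this panel Not Active means under 50% inhibition at 10 µM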
T2 sequence (P04035 whole entry): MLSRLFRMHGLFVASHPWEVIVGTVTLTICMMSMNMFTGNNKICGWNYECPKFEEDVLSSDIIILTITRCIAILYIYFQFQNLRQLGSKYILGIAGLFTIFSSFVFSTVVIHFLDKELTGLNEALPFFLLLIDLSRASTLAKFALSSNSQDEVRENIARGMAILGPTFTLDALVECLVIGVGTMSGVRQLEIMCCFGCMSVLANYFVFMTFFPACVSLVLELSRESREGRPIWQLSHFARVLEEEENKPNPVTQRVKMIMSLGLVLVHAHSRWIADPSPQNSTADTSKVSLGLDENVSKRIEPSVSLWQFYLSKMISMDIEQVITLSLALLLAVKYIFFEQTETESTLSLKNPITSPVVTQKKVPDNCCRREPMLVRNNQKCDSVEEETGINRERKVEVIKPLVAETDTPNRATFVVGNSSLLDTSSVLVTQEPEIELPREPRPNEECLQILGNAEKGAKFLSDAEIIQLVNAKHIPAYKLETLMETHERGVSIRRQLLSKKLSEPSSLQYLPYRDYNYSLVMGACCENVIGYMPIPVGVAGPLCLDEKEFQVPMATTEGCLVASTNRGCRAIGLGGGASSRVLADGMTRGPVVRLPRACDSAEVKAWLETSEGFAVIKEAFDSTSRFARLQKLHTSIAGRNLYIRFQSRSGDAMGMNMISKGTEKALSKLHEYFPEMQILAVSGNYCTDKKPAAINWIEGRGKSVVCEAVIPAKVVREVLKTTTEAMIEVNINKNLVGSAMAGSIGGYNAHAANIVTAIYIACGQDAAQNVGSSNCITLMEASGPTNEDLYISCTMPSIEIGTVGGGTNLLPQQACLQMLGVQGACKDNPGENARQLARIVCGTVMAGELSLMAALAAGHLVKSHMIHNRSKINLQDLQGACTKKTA

[3] = DRUGMATRIX: Glutamate, Kainate radioligand binding (ligand: [3H] Kainic acid); type: cell membranes, Rattus norvegicus, Wistar, Brain, Membrane; settings: Not Active = under 50% inhibition at 10 µM
[4] = molecular target: Matrix metalloproteinase-9 (Homo sapiens, UniProt P14780); type: cell-based;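 also: inhibition of isolated MMP-9 enzyme activity toward a synthetic peptide substrate, from the DrugMatrix protease screening panel; in other assays of this panel Not Active means under 50% inhibition at 10 µM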
Sequence of Matrix metalloproteinase-9 (P14780 whole entry): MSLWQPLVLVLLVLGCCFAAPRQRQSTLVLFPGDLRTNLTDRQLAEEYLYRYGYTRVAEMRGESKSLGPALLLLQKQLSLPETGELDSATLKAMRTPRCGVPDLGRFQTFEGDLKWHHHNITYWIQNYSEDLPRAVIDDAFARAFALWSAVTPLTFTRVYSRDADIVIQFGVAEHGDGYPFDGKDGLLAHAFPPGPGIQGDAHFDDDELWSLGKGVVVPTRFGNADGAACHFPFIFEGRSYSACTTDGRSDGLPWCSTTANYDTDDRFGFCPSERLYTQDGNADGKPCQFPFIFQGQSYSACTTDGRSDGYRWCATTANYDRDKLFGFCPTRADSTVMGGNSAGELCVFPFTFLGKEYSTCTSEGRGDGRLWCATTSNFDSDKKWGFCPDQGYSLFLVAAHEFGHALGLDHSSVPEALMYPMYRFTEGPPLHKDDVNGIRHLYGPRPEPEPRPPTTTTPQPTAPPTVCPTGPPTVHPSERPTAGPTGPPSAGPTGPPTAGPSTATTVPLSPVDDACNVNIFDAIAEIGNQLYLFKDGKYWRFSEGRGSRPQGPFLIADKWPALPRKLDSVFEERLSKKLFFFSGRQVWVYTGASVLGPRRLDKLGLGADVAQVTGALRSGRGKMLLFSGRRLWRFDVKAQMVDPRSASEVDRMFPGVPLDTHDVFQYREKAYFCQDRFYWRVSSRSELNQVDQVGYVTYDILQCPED

Insulin receptor = Insulin receptor (Rattus norvegicus, UniProt P15127); type: cell membranes, Wistar, Liver, Membrane; also: in other assays of this panel Not Active means under 50% inhibition at 10 µM
Sequence of Insulin receptor (P15127 27-759 limits assumed): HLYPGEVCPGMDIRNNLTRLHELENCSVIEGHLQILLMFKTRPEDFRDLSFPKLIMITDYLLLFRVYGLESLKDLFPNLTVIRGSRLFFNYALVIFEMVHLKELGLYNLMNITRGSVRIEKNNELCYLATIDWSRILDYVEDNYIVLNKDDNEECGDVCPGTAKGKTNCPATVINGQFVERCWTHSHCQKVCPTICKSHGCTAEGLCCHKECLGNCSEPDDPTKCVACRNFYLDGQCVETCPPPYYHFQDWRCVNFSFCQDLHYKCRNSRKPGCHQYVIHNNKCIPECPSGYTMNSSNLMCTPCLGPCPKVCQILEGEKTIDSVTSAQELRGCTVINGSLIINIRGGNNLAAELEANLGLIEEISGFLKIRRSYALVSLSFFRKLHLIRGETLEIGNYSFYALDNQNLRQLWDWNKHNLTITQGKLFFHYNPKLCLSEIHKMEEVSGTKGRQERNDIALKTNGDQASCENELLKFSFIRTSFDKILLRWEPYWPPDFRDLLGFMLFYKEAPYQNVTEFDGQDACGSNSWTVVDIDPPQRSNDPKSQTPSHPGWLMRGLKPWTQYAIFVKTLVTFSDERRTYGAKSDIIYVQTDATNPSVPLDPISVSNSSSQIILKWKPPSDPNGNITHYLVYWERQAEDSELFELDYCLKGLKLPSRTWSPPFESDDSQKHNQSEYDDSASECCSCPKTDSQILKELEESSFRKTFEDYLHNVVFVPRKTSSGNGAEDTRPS
Sequence of Insulin receptor (P15127 764-1383 limits assumed): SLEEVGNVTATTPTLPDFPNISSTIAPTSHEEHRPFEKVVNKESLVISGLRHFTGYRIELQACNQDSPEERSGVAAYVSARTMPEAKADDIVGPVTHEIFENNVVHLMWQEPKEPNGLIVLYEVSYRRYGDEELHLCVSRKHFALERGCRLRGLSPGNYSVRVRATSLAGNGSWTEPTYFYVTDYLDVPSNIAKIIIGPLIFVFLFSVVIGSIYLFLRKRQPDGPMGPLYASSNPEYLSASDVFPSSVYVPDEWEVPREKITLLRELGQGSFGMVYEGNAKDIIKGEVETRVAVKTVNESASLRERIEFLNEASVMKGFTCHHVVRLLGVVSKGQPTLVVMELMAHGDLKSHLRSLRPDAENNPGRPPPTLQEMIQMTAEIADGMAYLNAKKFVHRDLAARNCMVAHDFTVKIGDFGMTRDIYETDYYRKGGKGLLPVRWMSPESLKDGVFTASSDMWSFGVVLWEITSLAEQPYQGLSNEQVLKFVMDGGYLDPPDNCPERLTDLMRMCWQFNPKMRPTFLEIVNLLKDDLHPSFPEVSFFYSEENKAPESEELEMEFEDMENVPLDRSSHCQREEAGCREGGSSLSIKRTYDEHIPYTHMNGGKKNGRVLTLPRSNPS

[5] = molecular target: Protein kinase C alpha type (Homo sapiens, UniProt P17252); type: cell-based; settings: sf9
Substance-P receptor = Substance-P receptor (Homo sapiens, UniProt P25103); type: cell membranes, CHO, Membrane; settings: cho; also: in other assays of this panel Not Active means under 50% inhibition at 10 µM
Sequence of Substance-P receptor (P25103 whole entry): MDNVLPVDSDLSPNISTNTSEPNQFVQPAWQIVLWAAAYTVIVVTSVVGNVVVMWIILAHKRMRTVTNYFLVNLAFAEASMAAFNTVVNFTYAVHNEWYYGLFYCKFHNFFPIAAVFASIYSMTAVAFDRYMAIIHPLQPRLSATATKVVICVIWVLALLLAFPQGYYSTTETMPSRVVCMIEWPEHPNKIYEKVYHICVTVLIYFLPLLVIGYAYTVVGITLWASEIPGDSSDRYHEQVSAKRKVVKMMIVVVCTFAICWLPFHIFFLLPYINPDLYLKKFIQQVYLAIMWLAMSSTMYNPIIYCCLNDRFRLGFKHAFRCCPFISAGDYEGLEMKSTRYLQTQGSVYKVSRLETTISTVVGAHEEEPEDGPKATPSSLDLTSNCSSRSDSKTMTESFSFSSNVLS

[6] = DRUGMATRIX: Tumor Necrosis Factor (TNF), Non-Selective radioligand binding (ligand: [125I] TNF-alpha); type: cell membranes, Membrane; settings: u-937; Not Active = under 50% inhibition at 10 µM
Caspase-1 = molecular target: T3, Caspase-1 (Homo sapiens, UniProt P29466); parameters: species or system Escherichia coli
T3 sequence (P29466 whole entry): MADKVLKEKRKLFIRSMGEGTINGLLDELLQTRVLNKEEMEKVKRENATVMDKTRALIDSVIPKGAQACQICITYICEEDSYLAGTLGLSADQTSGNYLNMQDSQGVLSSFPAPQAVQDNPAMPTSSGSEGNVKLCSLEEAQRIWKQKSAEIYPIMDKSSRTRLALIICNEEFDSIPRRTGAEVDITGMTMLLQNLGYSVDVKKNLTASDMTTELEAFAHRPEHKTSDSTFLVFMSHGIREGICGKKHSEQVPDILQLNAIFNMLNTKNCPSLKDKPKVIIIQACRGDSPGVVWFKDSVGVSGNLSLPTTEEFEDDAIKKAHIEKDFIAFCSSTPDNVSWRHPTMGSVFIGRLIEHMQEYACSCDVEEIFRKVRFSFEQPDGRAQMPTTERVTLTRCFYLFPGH

CCOc1nc2cccc(C(=O)O)c2n1Cc1ccc(-c2ccccc2-c2nnn[nH]2)cc1
Not Active: IC50 [1] | IC50 [2] | IC50 [3] | Ki [3] | IC50 [4] | IC50 (Insulin receptor) | IC50 [5] | IC50 (Substance-P receptor) | IC50 [6] | Ki [6] | IC50 (Caspase-1)

O=C(O)CCCc1cccs1
Not Active: IC50 [1] | IC50 [2] | IC50 [3] | Ki [3] | IC50 [4] | IC50 (Insulin receptor) | IC50 [5] | IC50 (Substance-P receptor) | IC50 [6] | Ki [6] | IC50 (Caspase-1)

COc1ccccc1N
Not Active: IC50 [1] | IC50 [2] | IC50 [3] | Ki [3] | IC50 [4] | IC50 (Insulin receptor) | IC50 [5] | IC50 (Substance-P receptor) | IC50 [6] | Ki [6] | IC50 (Caspase-1)

O=C(c1ccccc1F)N1CCC(Cc2ccccc2)CC1
Not Active: IC50 [1] | IC50 [2] | IC50 [3] | Ki [3] | IC50 [4] | IC50 (Insulin receptor) | IC50 [5] | IC50 (Substance-P receptor) | IC50 [6] | Ki [6] | IC50 (Caspase-1)

Cc1c(O)cccc1C(=O)N[C@@H](CSc1ccccc1)[C@H](O)CN1C[C@H]2CCCC[C@H]2C[C@H]1C(=O)NC(C)(C)C
Not Active: IC50 [1] | IC50 [2] | IC50 [3] | Ki [3] | IC50 [4] | IC50 (Insulin receptor) | IC50 [5] | IC50 (Substance-P receptor) | IC50 [6] | Ki [6] | IC50 (Caspase-1)

CC(O)COC[C@H]1O[C@@H]2O[C@H]3[C@H](O)[C@@H](O)[C@@H](O[C@H]4[C@H](O)[C@@H](O)[C@@H](O[C@H]5[C@H](O)[C@@H](O)[C@@H](O[C@H]6[C@H](O)[C@@H](O)[C@@H](O[C@H]7[C@H](O)[C@@H](O)[C@@H](O[C@H]8[C@H](O)[C@@H](O)[C@@H](O[C@H]1[C@H](O)[C@H]2O)O[C@@H]8COCC(C)O)O[C@@H]7COCC(C)O)O[C@@H]6COCC(C)O)O[C@@H]5COCC(C)O)O[C@@H]4COCC(C)O)O[C@@H]3COCC(C)O (stereo partly drawn) [2-HYDROXYPROPYL-BETA-CYCLODEXTRIN]
Not Active: IC50 [1] | IC50 [2] | IC50 [3] | Ki [3] | IC50 [4] | IC50 (Insulin receptor) | IC50 [5] | IC50 (Substance-P receptor) | IC50 [6] | Ki [6] | IC50 (Caspase-1)

NC(=O)c1cccc(N)c1 [3-AMINOBENZAMIDE]
Not Active: IC50 [1] | IC50 [2] | IC50 [3] | Ki [3] | IC50 [4] | IC50 (Insulin receptor) | IC50 [5] | IC50 (Substance-P receptor) | IC50 [6] | Ki [6] | IC50 (Caspase-1)

C[C@H]1O[C@H](O[C@H]2[C@H](O)[C@@H](O)[C@@H](O[C@H]3[C@H](O)[C@@H](O)C(O)O[C@@H]3CO)O[C@@H]2CO)[C@H](O)[C@@H](O)[C@@H]1N[C@H]1C=C(CO)[C@@H](O)[C@H](O)[C@H]1O (some centres undefined) [ACARBOSE]
Not Active: IC50 [1] | IC50 [2] | IC50 [3] | Ki [3] | IC50 [4] | IC50 (Insulin receptor) | IC50 [5] | IC50 (Substance-P receptor) | IC50 [6] | Ki [6] | IC50 (Caspase-1)

CC[C@H]1[C@@H]2C[C@H]3[C@@H]4N(C)c5ccccc5[C@]45C[C@@H]([C@@H]2[C@H]5O)N3[C@@H]1O [AJMALINE]
Not Active: IC50 [1] | IC50 [2] | IC50 [3] | Ki [3] | IC50 [4] | IC50 (Insulin receptor) | IC50 [5] | IC50 (Substance-P receptor) | IC50 [6] | Ki [6] | IC50 (Caspase-1)

NC12CC3CC(CC(C3)C1)C2 [AMANTADINE]
Not Active: IC50 [1] | IC50 [2] | IC50 [3] | Ki [3] | IC50 [4] | IC50 (Insulin receptor) | IC50 [5] | IC50 (Substance-P receptor) | IC50 [6] | Ki [6] | IC50 (Caspase-1)

NCCCNCCSP(=O)(O)O [AMIFOSTINE]
Not Active: IC50 [1] | IC50 [2] | IC50 [3] | Ki [3] | IC50 [4] | IC50 (Insulin receptor) | IC50 [5] | IC50 (Substance-P receptor) | IC50 [6] | Ki [6] | IC50 (Caspase-1)

CN(C)CCC=C1c2ccccc2CCc2ccccc21 [AMITRIPTYLINE]
Not Active: IC50 [2] | IC50 [3] | Ki [3] | IC50 [4] | IC50 (Insulin receptor) | IC50 [5] | IC50 (Substance-P receptor) | IC50 [6] | Ki [6] | IC50 (Caspase-1)

CC(=O)Oc1ccccc1C(=O)O [ASPIRIN]
Not Active: IC50 [1] | IC50 [2] | IC50 [3] | Ki [3] | IC50 [4] | IC50 (Insulin receptor) | IC50 [5] | IC50 (Substance-P receptor) | IC50 [6] | Ki [6] | IC50 (Caspase-1)

CC(C)c1c(C(=O)Nc2ccccc2)c(-c2ccccc2)c(-c2ccc(F)cc2)n1CC[C@@H](O)C[C@@H](O)CC(=O)O [ATORVASTATIN]
Not Active: IC50 [1] | IC50 [3] | Ki [3] | IC50 [4] | IC50 (Insulin receptor) | IC50 [5] | IC50 (Substance-P receptor) | IC50 [6] | Ki [6] | IC50 (Caspase-1)

CC(=O)OC[C@H]1O[C@@H](n2ncc(=O)[nH]c2=O)[C@H](OC(C)=O)[C@@H]1OC(C)=O [AZARIBINE]
Not Active: IC50 [1] | IC50 [2] | IC50 [3] | Ki [3] | IC50 [4] | IC50 (Insulin receptor) | IC50 [5] | IC50 (Substance-P receptor) | IC50 [6] | Ki [6] | IC50 (Caspase-1)

C[C@H]1[C@H](NC(=O)/C(=N\OC(C)(C)C(=O)O)c2csc(N)n2)C(=O)N1S(=O)(=O)O [AZTREONAM]
Not Active: IC50 [1] | IC50 [2] | IC50 [3] | Ki [3] | IC50 [4] | IC50 (Insulin receptor) | IC50 [5] | IC50 (Substance-P receptor) | IC50 [6] | Ki [6] | IC50 (Caspase-1)

N=C(N)c1ccc(OCCCCCOc2ccc(C(=N)N)cc2)cc1 [PENTAMIDINE]
Not Active: IC50 [2] | IC50 [3] | Ki [3] | IC50 [4] | IC50 (Insulin receptor) | IC50 [5] | IC50 (Substance-P receptor) | IC50 [6] | Ki [6] | IC50 (Caspase-1)
